Results on 6 compounds are retold here after PubChem BioAssay AID222 (DTP/NCI, 2004).

This test deals with C57BL/6 mice, intracerebral ependymoblastoma, median survival T/C. Nature of the test: NCI In Vivo Anticancer Drug Screen. Data for tumor model Ependymoblastoma (intracerebral) in C57BL/6 mice. The settings on record: endpoint: median survival time, higher = longer survival. As for the experimental part: The antitumor activity of compounds was measured in mice bearing transplantable tumors. Survival or tumor size were measured and the results are expressed as the measurement made in the treated group (T) divided by the measurement made in the vehicle treated control group (C). The tumor model used in this assay is Ependymoblastoma (intracerebral) in C57BL/6 mice

The mark [1] stands for this setting: dose: 2.0 mg/kg/injection, schedule: Q01DX005 (ip), vehicle: saline with Tween-80.
Where [2] appears, read: dose: 16.0 mg/kg/injection, schedule: Q01DX005 (ip), vehicle: saline.
[3] abbreviates: dose: 32.0 mg/kg/injection, schedule: Q01DX005 (ip), vehicle: saline.

Several values for one entry are separate records, joined by “and”; a condition that tells them apart may be missing. Equal entries are not always repeated. Inconclusive results and toxic doses are left out.

Consider `O=NN(CCCl)C(=O)NCCCl`, for which the T/C by setting is: (dose: 0.12 mg/kg/injection, schedule: Q03HX032 (ip), vehicle: saline) 113 % of control and 291 % of control; (dose: 0.25 mg/kg/injection, schedule: Q03HX032 (ip), vehicle: saline) 291 % of control; (dose: 0.5 mg/kg/injection, schedule: Q03HX008 (ip), vehicle: saline) 110 % of control; (dose: 0.5 mg/kg/injection, schedule: Q03HX032 (ip), vehicle: saline) 169 % of control; (dose: 1.0 mg/kg/injection, schedule: Q01DX005 (ip), vehicle: saline + alcohol) 109 % of control; (dose: 2.0 mg/kg/injection, schedule: Q01DX001 (ip), vehicle: Klucel (hydroxypropylcellulose) (HPC)) 95 % of control and 100 % of control and 111 % of control. The T/C under setting [1] was 113 % of control; the T/C (dose: 2.0 mg/kg/injection, schedule: Q03HX008 (ip), vehicle: saline) was 103 % of control and 251 % of control; the T/C (dose: 2.0 mg/kg/injection, schedule: Q03HX032 (ip), vehicle: saline) was 151 % of control and 179 % of control; the T/C (dose: 4.0 mg/kg/injection, schedule: Q01DX001 (ip), vehicle: Klucel (hydroxypropylcellulose) (HPC)) was 101 % of control and 106 % of control and 120 % of control; the T/C (dose: 4.0 mg/kg/injection, schedule: Q01DX001 (oral), vehicle: saline with Tween-80) was 97 % of control and 108 % of control; the T/C (dose: 4.0 mg/kg/injection, schedule: Q01DX005 (ip), vehicle: alcohol) was 106 % of control. Besides, the T/C by setting is: (dose: 4.0 mg/kg/injection, schedule: Q03HX008 (ip), vehicle: saline) 178 % of control and 327 % of control; (dose: 4.0 mg/kg/injection, schedule: Q## X006 (ip), vehicle: saline with Tween-80) 159 % of control; (dose: 8.0 mg/kg/injection, schedule: Q01DX001 (ip), vehicle: Klucel (hydroxypropylcellulose) (HPC)) 115 % of control; (dose: 8.0 mg/kg/injection, schedule: Q01DX001 (oral), vehicle: saline with Tween-80) 95 % of control and 102 % of control and 122 % of control; (dose: 8.0 mg/kg/injection, schedule: Q01DX005 (ip), vehicle: saline + alcohol) 361 % of control; (dose: 8.0 mg/kg/injection, schedule: Q03HX008 (ip), vehicle: saline) 96 % of control and 98 % of control. Also, the T/C was 219 % of control (dose: 8.0 mg/kg/injection, schedule: Q## X006 (ip), vehicle: saline with Tween-80); 124 % of control (dose: 10.0 mg/kg/injection, schedule: Q01DX001 (ip), vehicle: other); 176 % of control (dose: 15.0 mg/kg/injection, schedule: Q01DX001 (ip), vehicle: saline with Tween-80); 150 % of control and 228 % of control (dose: 16.0 mg/kg/injection, schedule: Q01DX001 (ip), vehicle: Klucel (hydroxypropylcellulose) (HPC)); 124 % of control (dose: 16.0 mg/kg/injection, schedule: Q01DX001 (ip), vehicle: other); 158 % of control (dose: 16.0 mg/kg/injection, schedule: Q01DX001 (oral), vehicle: saline with Tween-80). Also, the T/C runs as follows: (dose: 16.0 mg/kg/injection, schedule: Q01DX005 (ip), vehicle: saline + alcohol) 96 % of control; (dose: 16.0 mg/kg/injection, schedule: Q08DX002 (ip), vehicle: saline) 207 % of control and 291 % of control; (dose: 20.0 mg/kg/injection, schedule: Q01DX001 (ip), vehicle: other) 164 % of control; (dose: 20.0 mg/kg/injection, schedule: Q01DX001 (oral), vehicle: saline with Tween-80) 195 % of control; (dose: 30.0 mg/kg/injection, schedule: Q01DX001 (ip), vehicle: saline with Tween-80) 212 % of control; (dose: 32.0 mg/kg/injection, schedule: Q01DX001 (ip), vehicle: Klucel (hydroxypropylcellulose) (HPC)) 101 % of control and 217 % of control and 231 % of control. The T/C is 219 % of control (dose: 32.0 mg/kg/injection, schedule: Q01DX001 (ip), vehicle: other); 108 % of control (dose: 32.0 mg/kg/injection, schedule: Q01DX001 (oral), vehicle: saline with Tween-80); 111 % of control (dose: 32.0 mg/kg/injection, schedule: Q04DX004 (ip), vehicle: saline); 196 % of control (dose: 40.0 mg/kg/injection, schedule: Q01DX001 (ip), vehicle: other); 94 % of control (dose: 64.0 mg/kg/injection, schedule: Q01DX001 (ip), vehicle: saline with Tween-80); 94 % of control (dose: 64.0 mg/kg/injection, schedule: Q01DX001 (oral), vehicle: saline with Tween-80). Also, the T/C is, setting by setting: (dose: 64.0 mg/kg/injection, schedule: Q04DX004 (ip), vehicle: saline) 100 % of control; (dose: 64.0 mg/kg/injection, schedule: Q08DX002 (ip), vehicle: saline) 97 % of control; (dose: 128.0 mg/kg/injection, schedule: Q01DX001 (ip), vehicle: saline with Tween-80) 97 % of control; (dose: 128.0 mg/kg/injection, schedule: Q01DX001 (oral), vehicle: saline with Tween-80) 92 % of control; (dose: 256.0 mg/kg/injection, schedule: Q01DX001 (ip), vehicle: saline with Tween-80) 88 % of control; (dose: 256.0 mg/kg/injection, schedule: Q01DX001 (oral), vehicle: saline with Tween-80) 88 % of control.

On to `S=c1nc[nH]c2nc[nH]c12`, for which the T/C is 103 % of control (dose: 10.0 mg/kg/injection, schedule: Q01DX001 (ip), vehicle: Klucel (hydroxypropylcellulose) (HPC)); 89 % of control and 103 % of control (dose: 10.0 mg/kg/injection, schedule: Q01DX005 (ip), vehicle: Klucel (hydroxypropylcellulose) (HPC)); 91 % of control (dose: 20.0 mg/kg/injection, schedule: Q01DX001 (ip), vehicle: Klucel (hydroxypropylcellulose) (HPC)); 107 % of control and 122 % of control (dose: 20.0 mg/kg/injection, schedule: Q01DX005 (ip), vehicle: Klucel (hydroxypropylcellulose) (HPC)); 109 % of control (dose: 40.0 mg/kg/injection, schedule: Q01DX001 (ip), vehicle: Klucel (hydroxypropylcellulose) (HPC)); 113 % of control (dose: 80.0 mg/kg/injection, schedule: Q01DX001 (ip), vehicle: Klucel (hydroxypropylcellulose) (HPC)). Where the note is “dose: 160.0 mg/kg/injection, schedule: Q01DX001 (ip), vehicle: Klucel (hydroxypropylcellulose) (HPC)”, the T/C is 102 % of control.

In the case of `F`, the T/C is 98 % of control under setting [2] and 96 % of control under setting [3].

Turning to `CC/C(=C(/CC)c1ccc(O)cc1)c1ccc(O)cc1`, the T/C (dose: 8.0 mg/kg/injection, schedule: Q01DX005 (ip), vehicle: saline) was 94 % of control; the T/C (dose: 16.0 mg/kg/injection, schedule: Q01DX005 (ip), vehicle: saline with Tween-80) is 101 % of control; the T/C under setting [2] is 100 % of control; the T/C (dose: 32.0 mg/kg/injection, schedule: Q01DX005 (ip), vehicle: saline with Tween-80) is 112 % of control; the T/C under setting [3] was 99 % of control; the T/C (dose: 64.0 mg/kg/injection, schedule: Q01DX005 (ip), vehicle: saline with Tween-80) was 100 % of control. In addition, the T/C (dose: 64.0 mg/kg/injection, schedule: Q01DX005 (ip), vehicle: saline) is 110 % of control.

On to `Cc1nc(N)nc(N)c1-c1ccc(Cl)c(Cl)c1`, for which the T/C (dose: 0.5 mg/kg/injection, schedule: Q01DX005 (ip), vehicle: saline with Tween-80) was 106 % of control and 117 % of control; the T/C (dose: 1.0 mg/kg/injection, schedule: Q01DX005 (ip), vehicle: saline with Tween-80) was 89 % of control and 97 % of control; the T/C under setting [1] is 117 % of control; the T/C (dose: 6.0 mg/kg/injection, schedule: Q04DX003 (ip), vehicle: saline) was 101 % of control; the T/C (dose: 8.0 mg/kg/injection, schedule: Q04DX003 (ip), vehicle: saline) is 112 % of control.

As for `COc1ccc(CC2C(=O)NC(C)C(=O)N(C)C3C(=O)N(C)C(Cc4ccc(O)c(c4)Oc4ccc(cc4)C3O)C(=O)NC(C)C(=O)NC(C)C(=O)N2C)cc1` (configuration not stated), the T/C was 103 % of control (dose: 0.13 mg/kg/injection, schedule: Q01DX005 (ip), vehicle: saline); 98 % of control (dose: 0.25 mg/kg/injection, schedule: Q01DX005 (ip), vehicle: saline); 98 % of control (dose: 0.5 mg/kg/injection, schedule: Q01DX005 (ip), vehicle: saline); 95 % of control (dose: 1.0 mg/kg/injection, schedule: Q01DX005 (ip), vehicle: saline).
